{"source": "patent US12208085B2", "about": "“Pyrazoline-derived compound for use in the prevention and/or treatment of pain and inflammation associated to surgery in mammals” (ECUPHAR NV, priority 2022, dated 2025)", "format_in_all_cases": "in vivo", "key": {"[1]": {"tested_on": "dogs undergoing experimental orthopaedic surgery", "assay": "Postoperative pain after experimental knee surgery (Maquet Modified Procedure), SFGCPS scoring", "settings": "Beagle dogs", "procedure": "The study was performed with 6 clinically healthy Beagle dogs with similar age and weight that were experimentally subjected to knee surgery (repair of cranial cruciate ligament rupture). […] All surgeries were conducted under the same preoperative, intraoperative and postoperative protocols and performed by the same surgeon. A highly standardized surgical technique, Maquet Modified Procedure (MMP) (12) was implemented.\nFor each dog the study lasted 17 days, including a 7-day acclimatization period. On day D−1 (approximately 24 h before the intervention) the five dogs in the TG received a single oral dose (8 mg/kg) of the TP, the one dog in the CG received a single subcutaneous dose (0.1 mg/kg) of the RP. […] On day D0 all dogs underwent knee surgery in the right knee. From day D1 up to day D10 dogs were closely examined and signs of pain and discomfort were blindly evaluated and rated using the Short Form of the Glasgow Composite Pain Scale (SFGCPS) ranging from 0 to 24 (13 and http://www.newmetrica.com/cmps/). On day D−1 dogs were also examined to rule out signs of pain or discomfort."}, "[2]": {"tested_on": "dogs undergoing soft tissue surgery", "assay": "Pilot field trial, postoperative pain and inflammation after elective soft tissue surgery (SFGCMPS, VAS), Placebo control", "set-up": "SFGCMPS Mobility average value / SFGCMPS Demeanour average value / SFGCMPS Posture/Activity average value / Total SFGCMPS average value / SFGCMPS Vocalization average value / SFGCMPS Attention to wound average value: scale not given here", "from_the_text": "The study was a single centre, prospective, parallel-controlled, randomized and blinded pilot field trial with a negative (Placebo) control to evaluate the efficacy of E-6087 in dogs undergoing elective soft tissue surgery.\nTwenty dogs (17 females and 3 males) were included in the study. Dogs were of different breeds or crossbreed, ages from 3 months to 7 years and weights from 4 to 34 kg. All dogs were clinically healthy other than the condition causing the animal to go under surgery.\nTwo days before surgery animals were weighed, a detailed physical examination was performed, and blood samples were collected for routine haematology and biochemistry to confirm the good health status of the animals before inclusion.\nDogs were randomly allocated to receive either E-6087 or Placebo as oral tablets. E-6087 and Placebo tablets were similar (same appearance and packaging), therefore treatment administration, clinical examinations and blood sample analysis was always blind.\nE-6087 was administered at the dose of 8 mg/kg on day D−1, approximately 24 h before surgery scheduled time, before the first meal of the day. Placebo tablets were administered following the same posology.\nSurgeries were performed in the morning, on day D0 by the Investigator (Surgeon). All surgeries were performed under the same anaesthesia protocol. Premedication was performed with medetomidine and morphine both at 0.1 ml/10 kg followed by anaesthesia maintained with Tiletamine/Zolazepam (Zoletil®). Local anaesthesia was not permitted. At the end of surgery, antibiotic therapy was administered to all dogs following the post-operative protocol stablished: amoxicillin (trihydrate) at 15 mg of amoxicillin/kg bw in a single dose.\nClinical assessments of postoperative pain and inflammation were done by the Investigator (Examining Veterinarian) using the SFGCMPS (13). Visual Analog Scales (VAS) were also used to assess pain at rest and under palpation as well as the level of inflammation.\nOn D0 at approximately 2 hours before surgery the Examining Veterinarian performed a physical examination and the clinical assessment of pain and inflammation to determine the basal scores. After surgery pain and inflammation were assessed at six examination time points: t1.5 h, t3 h, t5 h (±30 minutes), t8 h (±1 hour), t24 h and t168 (D7), when t0 h corresponded to the end of surgery (extubation).\nClinical assessment of pain and inflammation included assessments of vocalization, attention to wound area, mobility, reaction to pressure at the wound area, general behaviour as well as activity and posture as per SFGCMPS. In addition, pain at rest and after palpation as well as the level of inflammation were assessed at the same time points by VAS ranging from 0 (no pain) to 100 (severe pain manifested by vocalization, aggression, and refusal to allow examination) and from 0 (no inflammation) to 100 (major inflammation as local heat, redness or paresis of the affected area).\nStatistical Analysis was performed by use of commercially available software (SigmaPlot for Windows version 13.0). The area under the curve (AUC) was calculated for observable pain during the initial 8 and 24 hours, and it was considered as the primary efficacy variable. All analyses applied a two-sided significance level α=0.05 and a power β=80%. Demographic and baseline data were compared using the Mann-Whitney U test. Gender was compared with the Fisher exact probability test in contingency tables. Efficacy variables were analysed by repeated measures ANOVA.\nThe foremost surgical procedure was ovariohysterectomy, and this determined that most included animals were females. Sixteen females were ovariohysterectomized. Two males were castrated by cryptorchidectomy. […] All surgeries lasted less than 30 minutes except for one that lasted 54 minutes (perineal hernia)."}, "[3]": {"tested_on": "dogs undergoing orthopaedic surgery", "assay": "Non-inferiority field study, postoperative pain and inflammation after orthopaedic surgery (SFGCMPS, VAS), meloxicam control", "from_the_text": "The study was a non-inferiority, multicentre, prospective, parallel-controlled, randomized and blinded field study.\nThirty-two dogs of different breed, age and weight presenting at the veterinary practice for orthopaedic surgery were included.\nAgents with analgesic effect were permitted as premedication. However, intraoperative or postoperative analgesia were not permitted.\nFor each dog the study lasted twelve days. Two days before surgery, all animals were weighed and underwent a thorough physical examination with clinical pathology to confirm the good health status of the animals before inclusion. Day 0 (D0) was the day dogs underwent surgery and t0 h corresponded to the end of surgery (extubation). The physical examination was repeated on D0, before surgery (t−2 h) and before dispatch (t8 h) and again at t24 h (D1) and t168 (D7) post-surgery. Clinical assessments of pain and inflammation were blindly performed on D0, before surgery (t−2 h) and again at t1.5 h, t3 h, t5 h, t8 h, t24 h (D1) and t168 h (D7) post-surgery. The global efficacy of treatments was assessed on D7. From day D1 to day D7 post-surgery, the owners assessed the dog's wellbeing.\nThe primary endpoint for efficacy comprises the sum of scores for the SFGCMPS scale, which was assessed at different time points by the Investigator.\nFrom day D1 to D7, owners daily assessed the dogs' wellbeing using scales for: • Demeanour (0=normal; 1=slightly modified; 2=moderately modified; 3=markedly modified and 4=severely modified). • Mobility (0=normal; 1=slightly impaired; 2=moderately impaired; 3=markedly impaired and 4=severely impaired). • Quality of analgesia as very satisfactory (=1); satisfactory (=2); not very satisfactory (=3); not at all satisfactory (=4).\nBlood samples were collected from all animals before inclusion (≤D−2), for routine pre-surgery blood profile. Potential adverse effects related to the products were also recorded.\nStatistical Analysis was performed by use of commercially available software. All analyses used a two-sided significance level α=0.05. […]"}, "[4]": {"settings": "8 mg/kg oral D-1, 1.5 h after surgery"}, "[5]": {"settings": "8 mg/kg oral D-1, 3 h after surgery"}, "[6]": {"settings": "8 mg/kg oral D-1, 5 h after surgery"}, "[7]": {"settings": "8 mg/kg oral D-1, 8 h after surgery"}, "[8]": {"settings": "8 mg/kg oral D-1, 24 h after surgery"}}}
{"smiles": "NS(=O)(=O)c1ccc(N2N=C(C(F)(F)F)CC2c2ccc(F)cc2F)cc1", "note": "(stereo not shown) [E-6087, enflicoxib]", "values": [{"measurement": "potential adverse effects related to product administration", "setting": "[1]; single oral dose 8 mg/kg on D-1", "result": "No potential adverse effects"}, {"measurement": "need of rescue analgesia", "setting": "[1]; single oral dose 8 mg/kg on D-1, 10 days follow up", "result": "None of the animals needed rescue analgesia"}, {"measurement": "analgesic efficacy in the postoperative period after orthopaedic surgery", "setting": "[1]; single oral dose 8 mg/kg on D-1, knee surgery D0", "result": "effective as analgesic agent"}, {"measurement": "SFGCMPS Attention to wound average value", "setting": "[2]; [4]", "result": 0}, {"measurement": "SFGCMPS Demeanour average value", "setting": "[2]; [4]", "result": 0.83}, {"measurement": "SFGCMPS Mobility average value", "setting": "[2]; [4]", "result": 0.33}, {"measurement": "SFGCMPS Posture/Activity average value", "setting": "[2]; [4]", "result": 0.17}, {"measurement": "SFGCMPS Pressure on wound average value", "setting": "[2]; [4]", "result": 0.33}, {"measurement": "SFGCMPS Vocalization average value", "setting": "[2]; [4]", "result": 0.25}, {"measurement": "Total SFGCMPS average value", "setting": "[2]; [4]", "result": 1.92}, {"measurement": "SFGCMPS Attention to wound average value", "setting": "[2]; [5]", "result": 0.08}, {"measurement": "SFGCMPS Demeanour average value", "setting": "[2]; [5]", "result": 0.50}, {"measurement": "SFGCMPS Mobility average value", "setting": "[2]; [5]", "result": 0}, {"measurement": "SFGCMPS Posture/Activity average value", "setting": "[2]; [5]", "result": 0.08}, {"measurement": "SFGCMPS Pressure on wound average value", "setting": "[2]; [5]", "result": 0.42}, {"measurement": "SFGCMPS Vocalization average value", "setting": "[2]; [5]", "result": 0.25}, {"measurement": "Total SFGCMPS average value", "setting": "[2]; [5]", "result": 1.33}, {"measurement": "level of inflammation (VAS), compared with Placebo", "setting": "[2]; 8 mg/kg oral D-1, 3 hours after surgery, p=0.021, Placebo greater", "result": "statistically significant differences"}, {"measurement": "SFGCMPS Attention to wound average value", "setting": "[2]; [6]", "result": 0.08}, {"measurement": "SFGCMPS Demeanour average value", "setting": "[2]; [6]", "result": 0.17}, {"measurement": "SFGCMPS Mobility average value", "setting": "[2]; [6]", "result": 0}, {"measurement": "SFGCMPS Posture/Activity average value", "setting": "[2]; [6]", "result": 0}, {"measurement": "SFGCMPS Pressure on wound average value", "setting": "[2]; [6]", "result": 0.50}, {"measurement": "SFGCMPS Vocalization average value", "setting": "[2]; [6]", "result": 0}, {"measurement": "Total SFGCMPS average value", "setting": "[2]; [6]", "result": 0.75}, {"measurement": "SFGCMPS Attention to wound average value", "setting": "[2]; [7]", "result": 0}, {"measurement": "SFGCMPS Demeanour average value", "setting": "[2]; [7]", "result": 0}, {"measurement": "SFGCMPS Mobility average value", "setting": "[2]; [7]", "result": 0}, {"measurement": "SFGCMPS Posture/Activity average value", "setting": "[2]; [7]", "result": 0}, {"measurement": "SFGCMPS Pressure on wound average value", "setting": "[2]; [7]", "result": 0.67}, {"measurement": "SFGCMPS Vocalization average value", "setting": "[2]; [7]", "result": 0}, {"measurement": "Total SFGCMPS average value", "setting": "[2]; [7]", "result": 0.50}, {"measurement": "SFGCMPS Attention to wound average value", "setting": "[2]; [8]", "result": 0}, {"measurement": "SFGCMPS Demeanour average value", "setting": "[2]; [8]", "result": 0}, {"measurement": "SFGCMPS Mobility average value", "setting": "[2]; [8]", "result": 0}, {"measurement": "SFGCMPS Posture/Activity average value", "setting": "[2]; [8]", "result": 0}, {"measurement": "SFGCMPS Pressure on wound average value", "setting": "[2]; [8]", "result": 0.50}, {"measurement": "SFGCMPS Vocalization average value", "setting": "[2]; [8]", "result": 0}, {"measurement": "Total SFGCMPS average value", "setting": "[2]; [8]", "result": 0.50}, {"measurement": "AUC (primary efficacy variable) for the first 24 hours after surgery, compared with Placebo", "setting": "[2]; 8 mg/kg oral D-1, difference not statistically significant (p=0.266)", "result": "almost half"}, {"measurement": "SFGCMPS AUC0→8 h", "setting": "[2]; 8 mg/kg oral D-1, first 8 hours after surgery", "result": "8.0 ± 5.0"}, {"measurement": "SFGCMPS AUC0→24 h", "setting": "[2]; 8 mg/kg oral D-1, first 24 hours after surgery", "result": "16.0 ± 15"}, {"measurement": "AUC for the first 8 hours, compared with Placebo", "setting": "[2]; 8 mg/kg oral D-1, p=0.033", "result": "statistically significant lower values"}, {"measurement": "Total scores for SFGCMPS at each time point, compared with Placebo", "setting": "[2]; 8 mg/kg oral D-1, significant only at 1.5, 3 and 5 hours", "result": "always lower"}, {"measurement": "adverse events", "setting": "[2]; 8 mg/kg oral D-1, whole study", "result": "No adverse events were observed"}, {"measurement": "alleviation of pain and inflammation after soft tissue surgery (conclusion)", "setting": "[2]; single dose of 8 mg/kg", "result": "effective in alleviating pain and inflammation"}, {"measurement": "level of inflammation (VAS), compared with meloxicam", "setting": "[3]; 8 mg/kg oral D-1, 3 h after surgery, p=0.025", "result": "lower values"}, {"measurement": "assessment of global efficacy, compared with meloxicam", "setting": "[3]; 8 mg/kg oral D-1, D7, p=0.7879", "result": "No differences were detected"}, {"measurement": "SFGCMPS (AUC), primary efficacy variable, average value", "setting": "[3]; initial 24 hours after orthopaedic surgery, E-6087 8 mg/kg oral D-1, meloxicam 0.2 mg/kg D0 then 0.1 mg/kg daily to D7", "result": "95.50±57.70"}]}
